PMC8230565, “Bisavenathramide Analogues as Nrf2 Inductors and Neuroprotectors in In Vitro Models of Oxidative Stress and Hyperphosphorylation” (Antioxidants, 2021)
Entries after “also recorded” stand apart in the source; their conditions may differ.

Legend:
[1] = Ferric reducing antioxidant power (FRAP) assay; set-up: key to FRAP TEAC: trolox equivalents (TEAC), relative to trolox; conditions: for FRAP TEAC: 30 µM, relative to trolox; for FRAP nmol Fe2+ at 30 µM: 30 µM compound, n in brackets
Description: A ferric reducing antioxidant power (FRAP) kit assay purchased from Sigma-Aldrich (Madrid, Spain) was employed for the experiments. The antioxidant solutions, FRAP assay buffer solution, FeCl3 solution, and FRAP probe solution were kept in ice during the preparation of the plate. A calibration standard curve was prepared by using the 2 mM ferrous standard solution provided in the FRAP kit assay. Appropriate aliquots of this solution were taken and diluted up to a 200 μL final volume with FRAP buffer. The final ferrous concentrations measured in the well were: 0, 20, 40, 60, 80, and 100 μM. Each concentration value was prepared and measured by triplicate. Stock solutions of compounds 3, as well as reference compounds trolox and ferulic acid, were freshly prepared in 95% ethanol at […]. Aliquots of 10 μL of compounds 3 and the reference compounds were mixed with 19 μL FeCl3 solution and 19 μL FRAP probe solution, and then completed to a final volume of 200 μL with FRAP assay buffer solution. The final concentration of antioxidants and references was 30 μM. Compounds 3, reference compounds, as well as the corresponding blank solutions (one for each compound to be assayed, avoiding the chromogenic FRAP probe), and positive control were thoroughly mixed in vortex for 1–2 min with the reaction chromogenic media, and then were incubated under darkness at 37 °C in the dry bath, and using the device for support well-plates. Each compound to be assayed and the reference antioxidant compounds were prepared and measured by triplicate. The absorbance values were measured at 594 nm after 5 min of reaction and, to assure complete reaction, the absorbance values after 60 min of incubation at 37 °C in the dry bath were also measured. The absorbance values of the sample antioxidant compounds were corrected by subtracting the corresponding absorbance values of the blanks, and then they were introduced in the calibration curve and the ferrous equivalents were determined. The reference antioxidants employed for this assay were trolox and ferulic acid, which were obtained from Sigma-Aldrich (Madrid, Spain). Ultrapure water was obtained from a Milli-Q Direct 8 system (Millipore, Molsheim, France).
In order to achieve a broader insight into the antioxidant profile of our compounds, we also examined them using a single electron transfer (SET)-based method, namely the ferric reducing antioxidant power (FRAP) assay, which measures the ability of an antioxidant to reduce the ferric ion in the TPTZ (2,4,6-tri(2-pyridyl)-1,3,5-triazine)-Fe(III) complex.

SH-SY5Y cells [2] = assay: Neuroprotection against rotenone/oligomycin A in SH-SY5Y cells (MTT); assay type: cell-based; conditions: Homo sapiens, 24 h, 1 µM compound, rotenone 30 µM + oligomycin A 10 µM, read-out: % Neuroprotection ± SEM at 1 µM (rotenone/oligomycin A)
Description: To evaluate the compounds for their neuroprotective effect in an oxidative stress model, we selected the rotenone (30 μM) and oligomycin A (10 μM) (R/O) cocktail, which disturbs the flow of electrons in the mitochondrial respiratory chain. Similarly, SH-SY5Y cells were preincubated with compounds 3 at 1 μM for 24 h. Then, they were co-incubated in the presence of R/O for a further 24 h, evaluating cell viability by the MTT reduction method.
Thus, the R/O combination constitutes a good model of oxidative stress and neurodegeneration with a mitochondrial origin, and has been broadly employed to evaluate potential hit compounds for the treatment of neurodegenerative diseases. Furthermore, treatment of laboratory animals with rotenone is known to induce many features associated to Parkinson’s disease, such as selective nigrostriatal dopaminergic degeneration and the appearance of α-synuclein cytoplasmic inclusions, which are associated with oxidative damage.

SH-SY5Y cells [3] = assay: Neuroprotection against okadaic acid in SH-SY5Y cells (MTT); assay type: cell-based; conditions: for % neuroprotection against okadaic acid at 1 µM: Homo sapiens, SH-SY5Y, 18 h, 1 µM compound, okadaic acid 20 nM, read-out: % Neuroprotection ± SEM at 1 µM (okadaic acid)
Description: Neuroprotection studies against tau hyperphosphorylation exerted by okadaic acid (OA) were evaluated using the SH-SY5Y cell line as follows. […] After 18 h, cell viability was addressed by the MTT reduction method. MTT (5 mg/mL, 10 μL/well) was added and incubated for 2 h. Then, the medium was removed and the purple formazan crystals formed by viable cells were dissolved using 100 μL of DMSO. A FluoStar Optima spectrophotometer (BMG Labtech, Ortenberg, Baden-Württemberg, Germany) was used to measure the absorbance at 570 nm.
Okadaic acid is a potent inhibitor of protein phosphatase 2A (PP2A), thereby inducing tau hyperphosphorylation. For this reason, it can be employed as a model of neurodegenerative-disease-connected tau hyperphosphorylation, a well-known feature of Alzheimer’s disease, but present also in other NDDs, collectively known as tauopathies and characterized by the pathological aggregation of hyperphosphorylated tau in neurofibrillary tangles. […] Tau hyperphosphorylation is connected to oxidative stress, which activates p38 and deactivates calcineurin, a phosphatase involved in tau dephosphorylation by increasing RCAN1, its natural repressor [34, 35]. Indeed, hyperphosphorylation and oxidative stress have been proposed to generate a vicious circle that is critical to the advance of neurodegenerative tauopathies.

[4] = tested on: neuroblastoma SHSY5Y cells; assay: Cytotoxicity in SHSY5Y cells (MTT reduction); assay type: cell-based; conditions: for LD50: MTT reduction
Description: SH-SY5Y cells (ECACC 94030304, Porton Down, Salisbury, UK), from passages between 4 and 16 after defreezing, were maintained in a MEM/F12 containing […] nonessential amino acids and supplemented with 10% fetal bovine serum (FBS), glutamine 1 mM, 50 units/mL of penicillin, and 50 μg/mL of streptomycin (GIBCO, Madrid, Spain). Cells were harvested in a […] flask and incubated at 37 °C with wet atmosphere and 5% CO2, carrying out passages 1:4 twice a week. For neuroprotection experiments, cells were seeded in 96-well plates at a density of 60,000 cells/well. For the toxicity experiments, cells were treated with the compounds under assay before reaching confluence, in MEM/F12 with 1% FBS.
Due to their presumed electrophilicity, the neurotoxicity of our compounds was investigated by investigating their influence on cell viability in the neuroblastoma SHSY5Y cell line prior to other studies in cell cultures. […] It is relevant to note that, despite their reputation for toxicity, interest in covalent drugs has undergone a renaissance, and about 30% of the recently marketed drugs belong to this class.

| Structure (SMILES) | FRAP TEAC [1] | % neuroprotection against rotenone/oligomycin A toxicity at 1 µM (SH-SY5Y cells [2]) [%] | % neuroprotection against okadaic acid at 1 µM (SH-SY5Y cells [3]) [%] | toxicity assessment [4] | LD50 [4] [µM] | FRAP nmol Fe2+ at 30 µM [1] | level of neuroprotection compared with melatonin / in words (okadaic acid) (SH-SY5Y cells [3]; 1 µM) | antioxidant activity in FRAP compared with references [1] | neuroprotective effect against okadaic acid by concentration (SH-SY5Y cells [3]; 0.01, 0.1, 1, 10 and 30 µM, OA 20 nM) |
| --- | --- | --- | --- | --- | --- | --- | --- | --- | --- |
| COC(=O)C1=C(C)N(Cc2ccccc2)C(=O)/C1=C\c1ccccc1 [Compound 3a, Methyl (Z)-1-Benzyl-4-benzylidene-2-methyl-5-oxo-4,5-dihydro-1H-pyrrole-3-carboxylate] | 0.62 | 44.3 ± 13.6 | 68 ± 22 | too toxic | 63.7 ± 12.8 |  |  |  |  |
| COC(=O)C1=C(C)N(Cc2ccccc2)C(=O)/C1=C\c1ccc(OC)cc1 [Compound 3b, Methyl (Z)-1-Benzyl-4-(4-methoxybenzylidene)-2-methyl-5-oxo-4,5-dihydro-1H-pyrrole-3-carboxylate] | 0.63 | 68 ± 31.5 | 54.1 ± 14.3 |  | >100 | 1.44 ± 0.02 (3) nmol Fe^2+ |  |  |  |
| COC(=O)C1=C(C)N(Cc2ccccc2)C(=O)/C1=C\c1ccc(Cl)cc1 [Compound 3c, Methyl (Z)-1-Benzyl-4-(4-chlorobenzylidene)-2-methyl-5-oxo-4,5-dihydro-1H-pyrrole-3-carboxylate] | 0.62 | > 90 | 52.8 ± 9.96 | too toxic |  | 1.41 ± 0.03 (3) nmol Fe^2+ |  |  |  |
| COC(=O)C1=C(C)N(CCc2ccccc2)C(=O)/C1=C\c1ccc2c(c1)OCO2 [Compound 3d, Methyl (Z)-4-(Benzo[d](1,3)dioxol-5-ylmethylene)-2-methyl-5-oxo-1-phenethyl-4,5-dihydro-1H-pyrrole-3-carboxylate] | 0.62 | 49.8 ± 9.46 | 52.7 ± 17.2 |  | >100 | 1.41 ± 0.04 (3) nmol Fe^2+ |  |  |  |
| COC(=O)C1=C(C)N(CCc2ccccc2)C(=O)/C1=C\c1ccc(OC)cc1OC [Compound 3e, Methyl (Z)-4-(2,4-Dimethoxybenzylidene)-2-methyl-5-oxo-1-phenethyl-4,5-dihydro-1H-pyrrole-3-carboxylate] | 0.63 | 50.3 ± 16.3 | 62.8 ± 8 |  | >100 | 1.44 ± 0.01 (3) nmol Fe^2+ |  |  |  |
| COC(=O)C1=C(C)N(CCc2ccccc2)C(=O)/C1=C\c1cc(OC)c(OC)cc1OC [Compound 3f, Methyl (Z)-2-Methyl-5-oxo-1-phenethyl-4-(2,4,5-trimethoxybenzylidene)-4,5-dihydro-1H-pyrrole-3-carboxylate] | 0.62 | 51 ± 16.9 | 48.3 ± 11 |  | >100 | 1.42 ± 0.04 (3) nmol Fe^2+ |  |  |  |
| COC(=O)C1=C(C)N(CCc2ccccc2)C(=O)/C1=C\c1cc(OC)c(OC)c(OC)c1 [Compound 3g, Methyl (Z)-2-Methyl-5-oxo-1-phenethyl-4-(3,4,5-trimethoxybenzylidene)-4,5-dihydro-1H-pyrrole-3-carboxylate] | 0.60 | 74.5 ± 7.19 | 65.7 ± 29.1 |  | >100 | 1.36 ± 0.10 (3) nmol Fe^2+ |  |  |  |
| COC(=O)C1=C(C)N(CCc2ccccc2)C(=O)/C1=C\c1ccc(OC)c(O)c1 [Compound 3h, Methyl (Z)-4-(3-Hydroxy-4-methoxybenzylidene)-2-methyl-5-oxo-1-phenethyl-4,5-dihydro-1H-pyrrole-3-carboxylate] | 0.71 | 46.2 ± 18.9 | 81.9 ± 28.5 |  | >100 | 1.63 ± 0.04 (3) nmol Fe^2+ | excellent neuroprotection |  |  |
| COC(=O)C1=C(C)N(CCc2ccccc2)C(=O)/C1=C\c1ccc(O)c(O)c1 [Compound 3i, Methyl (Z)-4-(3,4-Dihydroxybenzylidene)-2-methyl-5-oxo-1-phenethyl-4,5-dihydro-1H-pyrrole-3-carboxylate] | 1.01 | > 90 | 60.9 ± 23.3 | suitable toxicity profile | 92.8 ± 4.6 | 2.30 ± 0.08 (3) nmol Fe^2+ |  | more active than ferulic acid and slightly more active than trolox | concentration-dependent neuroprotective effect being statistically significant at 1 and 10 µM; also recorded: neuroprotection was lost at 30 µM |
| COC(=O)C1=C(C)N(CCc2ccccc2)C(=O)/C1=C\c1ccc(OCc2ccccc2F)c(OC)c1 [Compound 3j, Methyl (Z)-4-[4-((2-Fluorobenzyl)oxy)-3-methoxybenzylidene]-2-methyl-5-oxo-1-phenethyl-4,5-dihydro-1H-pyrrole-3-carboxylate] | 0.70 | 51.2 ± 15.5 | 31.8 ± 15.2 |  | >100 | 1.60 ± 0.04 (3) nmol Fe^2+ |  |  |  |
| COC(=O)C1=C(C)N(CCc2ccccc2)C(=O)/C1=C\c1ccc(OCc2ccccc2Cl)c(OC)c1 [Compound 3k, Methyl (Z)-4-[4-((2-Chlorobenzyl)oxy)-3-methoxybenzylidene]-2-methyl-5-oxo-1-phenethyl-4,5-dihydro-1H-pyrrole-3-carboxylate] | 0.71 | 60.3 ± 20.9 | 57.1 ± 22.3 |  | >100 | 1.63 ± 0.01 (3) nmol Fe^2+ |  |  |  |
| COC(=O)C1=C(C)N(CCc2ccccc2)C(=O)/C1=C\c1ccc(OCc2ccc(Cl)cc2)c(OC)c1 [Compound 3l, Methyl (Z)-4-[4-((4-Chlorobenzyl)oxy)-3-methoxybenzylidene]-2-methyl-5-oxo-1-phenethyl-4,5-dihydro-1H-pyrrole-3-carboxylate] | 0.71 | 79.8 ± 8.28 | 51.1 ± 18.4 |  | >100 | 1.62 ± 0.03 (3) nmol Fe^2+ |  |  |  |
